Values quoted from earlier work, collected in patent US6436449B2, “Use of a composition” (priority 2000, dated 2002).

Key:
[1] = system: burn eschars; conditions: mice; US 4,543,212
[2] = system: blood platelets; conditions: in vitro; US 4,543,212
[3] = injected into mice; US 4,543,212

xeronine
debridement of burn eschars [1]: caused the debridement of burn eschars | aggregation of blood platelets by adenosine diphosphate [2]: inhibited | anti-inflammatory action [3]: excellent anti-inflammatory agents
